Earlier results, collected in patent US7851190B2, “Biosynthetic gene cluster for leptomycins” (priority 2003, dated 2010).

What was measured:
[1] = system: HIV-1 Rev; conditions: in vitro; FIG. 2
[2] = system: adriamycin, amsacrine and mitoxantrone resistant P388 leukemia, other leukemias, B16 melanoma, Ridgway osteogenic and M5076 sarcomas and mammary adenocarinoma

| Compound | difference in activity between a Rev-dependent assay and cytotoxicity to the same cells [1] | acute toxicity ([2]; exacerbated upon more frequent or oral administration) | antitumor activity ([2]; mouse murine and xenograph cancer models, low doses) |
| --- | --- | --- | --- |
| CCOC(=O)/C=C\n1ncnc1-c1cc(Cl)ccc1N [PKF050-638] | 75 fold |  |  |
| CCC(=C/[C@H](C)C/C=C/C(C)=C/[C@@H](C)C(=O)[C@@H](C)[C@H](O)[C@@H](C)C/C(C)=C/C(=O)O)/C=C/[C@@H]1OC(=O)C=C[C@@H]1C [LMB, Leptomycin B] | approx. 250 fold | gastrointestinal | Activity was observed at low doses |
